Where two headings read alike, the source gives them in different places.
Legend:
[1] = molecular target: T1, post-synaptic alpha-adrenergic receptors (isolated rat vas deferens) (Rattus norvegicus, UniProt P43140); test: alpha-blocking activity towards norepinephrine on isolated rat vas deferens; details: norepinephrine contraction, read-out: pA2 (converted)
T1 construct: isolated rat vas deferens; from tissue; host or cells: isolated rat vas deferens
T1 sequence (P43140 1-466): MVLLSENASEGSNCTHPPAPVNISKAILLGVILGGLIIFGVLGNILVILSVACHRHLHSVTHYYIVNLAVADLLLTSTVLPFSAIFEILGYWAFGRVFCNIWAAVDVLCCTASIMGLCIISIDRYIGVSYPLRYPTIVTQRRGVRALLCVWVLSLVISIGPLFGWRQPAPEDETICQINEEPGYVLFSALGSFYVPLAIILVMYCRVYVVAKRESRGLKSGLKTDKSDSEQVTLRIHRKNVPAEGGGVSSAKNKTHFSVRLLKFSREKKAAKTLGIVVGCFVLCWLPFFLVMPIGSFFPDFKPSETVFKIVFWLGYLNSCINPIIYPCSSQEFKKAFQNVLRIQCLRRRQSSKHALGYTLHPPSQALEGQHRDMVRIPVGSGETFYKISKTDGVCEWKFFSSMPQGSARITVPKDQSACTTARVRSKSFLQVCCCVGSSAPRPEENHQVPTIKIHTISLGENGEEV
Experimental: 2) Determination of the alpha-blockinq activity on isolated rat vas deferens
(§1) a) Principle of the measurement
Stimulation of the post-synaptic alpha-adrenergic receptors by norepinephrine causes contraction of the isolated vas deferens.
The concentration of product in whose presence the norepinephrine concentration must be doubled to obtain the same effect as in the absence of said product is determined.
The logarithm of this concentration, with its sign changed, constitutes the pA2 of the products.

[2] = test system: increase in ureteral pressure induced by norepinephrine; test: inhibitory action on the increase in ureteral pressure induced in rabbits by intravenous norepinephrine; format: in vivo, anesthetized male rabbits; details: for ED50: Oryctolagus cuniculus, iv, norepinephrine-induced ureteral hyperpressure, read-out: ID50 (50 percent inhibitory dose)
Experimental: 4) Determination of the inhibitory action of the compounds towards the increase in ureteral pressure induced in rabbits by the intravenous administration of norepinephrine
as §1
The ureteral pressure is measured by catheterization of the prostatic ureter of anesthetized male rabbits. The increase in ureteral pressure is induced by an intravenous injection of norepinephrine. This hyperpressure can be inhibited by the prior administration of molecules with alpha-blocking potential.
These are shown in Table 5 in the form of the 50% inhibitory dose (ID50), which is defined as being the dose of product which, when administered intravenously, causes a 50% inhibition of the ureteral hyperpressure induced by norepinephrine.

[3] = test system: lethal effect of norepinephrine; test: adrenolytic activity in vivo in rats towards the lethal effect of norepinephrine; details: Rattus norvegicus
Experimental: 3) Determination of the adrenolytic activity "in vivo" in rats:
as §1
The intravenous injection of norepinephrine (0.4 mg.kg^-1) into wake rats causes the death of 100% of the animals. The prior administration of a substance with an alpha-blocking property enables this toxicity to be reduced.
The results are expressed in the form of the 50% effective dose (ED50), i.e. the dose in mg.kg^-1 which protects 50% of the animals.

[4] = Acute toxicity in mice, single oral administration; details: mouse, in vivo, male mice, 14 days observation, read-out: LD50 (50 percent lethal dose)
Experimental: 1) Acute toxicity in mice:
Principle of the measurement
The products were administered orally, in a single dose, to male mice with an average weight of 22 g. The mortality was recorded after an observation period of 14 days.
The results are expressed in the form of the 50% lethal dose (LD50), i.e. the theoretical dose in mg.kg^-1, administered orally, which causes the death of 50% of the animals.

[5] = oral, norepinephrine 0.4 mg.kg^-1 i.v., read-out: ED50 (50 percent effective dose)

SMILES: Cc1ncsc1CCN1CCN(c2ccccc2OC(C)C)CC1.Cl [B 1398, 4-methyl-5-[2-(4-o-isopropoxyphenylpiperazin-1-yl)ethyl]thiazole monohydrochloride]
- Kb [1]: 0.017 µM
- ED50 [2]: 0.09 mg/kg
- effectiveness against ureteral hyperpressure (in words) ([2]; i.v., in words): remarkably effective
- ED50 [3, 5]: 0.44 mg/kg
- LD50 at 336 h [4]: > 1000 mg/kg

SMILES: Cc1ncsc1CCN1CCN(c2ccccc2)CC1 [4-methyl-5-[2-(4-phenylpiperazin-1-yl)ethyl]thiazole, reference compound]
- ED50 ([3]; po, prior-art compound, under the same conditions, read-out: ED50): 8.7 mg/kg

SMILES: Cc1ncsc1CCN1CCN(c2ccccc2O)CC1.Cl.Cl [B 1302, 4-methyl-5-[2-(4-o-hydroxyphenylpiperazin-1-yl)ethyl]thiazole dihydrochloride]
- Kb [1]: 0.126 µM
- ED50 [2]: 0.44 mg/kg
- ED50 [3, 5]: 4 mg/kg
- LD50 at 336 h [4]: 490 mg/kg

SMILES: CCOc1ccccc1N1CCN(CCc2scnc2C)CC1.Cl.Cl.Cl [B 1211, 4-methyl-5-[2-(4-o-ethoxyphenylpiperazin-1-yl)ethyl]thiazole trihydrochloride]
- Kb [1]: 0.0263 µM
- ED50 [2]: 0.16 mg/kg
- ED50 [3, 5]: 2 mg/kg
- LD50 at 336 h [4]: > 1000 mg/kg

SMILES: Cc1ncsc1CCN1CCN(c2ccccc2OCc2ccccc2)CC1 [B 1425]
- Kb [1]: 0.0631 µM
- ED50 [3, 5]: 5 mg/kg
- LD50 at 336 h [4]: > 1000 mg/kg

SMILES: CCCCOc1ccccc1N1CCN(CCc2scnc2C)CC1.Cl [B 1341, 4-methyl-5-[2-(4-o-butoxyphenylpiperazin-1-yl)ethyl]thiazole monohydrochloride]
- Kb [1]: 0.01 µM
- ED50 [2]: 0.39 mg/kg
- ED50 [3, 5]: 1 mg/kg
- LD50 at 336 h [4]: > 1000 mg/kg

SMILES: COc1ccccc1N1CCN(CCc2scnc2C)CC1.Cl.Cl.Cl [B 1433, 4-methyl-5-[2-(4-o-methoxyphenylpiperazin-1-yl)ethyl]thiazole trihydrochloride]
- Kb [1]: 0.0145 µM
- ED50 [2]: 0.3 mg/kg
- ED50 [3, 5]: 2.66 mg/kg
- LD50 at 336 h [4]: > 1000 mg/kg

SMILES: Cc1ncsc1CCN1CCN(c2ccccc2OCC(C)(C)C)CC1 [B 1424]
- Kb [1]: 0.2 µM
- ED50 [3, 5]: 2.04 mg/kg
- LD50 at 336 h [4]: > 1000 mg/kg

SMILES: CCCCCOc1ccccc1N1CCN(CCc2scnc2C)CC1.Cl [B 1357, 4-methyl-5-[2-(4-o-pentoxyphenylpiperazin-1-yl)ethyl]thiazole monohydrochloride]
- Kb [1]: 0.017 µM
- ED50 [2]: 0.46 mg/kg
- ED50 [3, 5]: 1.8 mg/kg
- LD50 at 336 h [4]: > 1000 mg/kg

SMILES: Cc1ncsc1CCN1CCN(c2ccccc2OCC(C)C)CC1 [B 1422]
- Kb [1]: 0.0363 µM
- ED50 [3, 5]: 1.6 mg/kg
- LD50 at 336 h [4]: > 1000 mg/kg

SMILES: Cc1ncsc1CCN1CCN(c2ccccc2OCCC(C)C)CC1 [B 1423]
- Kb [1]: 0.0457 µM
- ED50 [3, 5]: 2.35 mg/kg
- LD50 at 336 h [4]: > 1000 mg/kg

SMILES: CCCOc1ccccc1N1CCN(CCc2scnc2C)CC1 [B 1359]
- Kb [1]: 0.0575 µM
- ED50 [3, 5]: 1.93 mg/kg
- LD50 at 336 h [4]: > 1000 mg/kg

Reference: US5120736A, “4-methyl-5-(2-(4-phenylpiperazin-1-yl)ethyl)thiazole derivatives their method of preparation and the pharmaceutical compositions in which they are present” (Institut de Recherches Chimiques et Biologiques Appliquees, priority 1988, dated 1992)
